{
  "source": "patent US6600063B1",
  "about": "“Derivatives of phenyl 4-aminosalicylate and method of making the same” (priority 2000, dated 2003)",
  "key": {"[1]": {"tested_on": "Mycobacterium tuberculosis H37Rv (ATCC 27294)", "assay": "BACTEC 460 radiometric system, primary screen and MIC against M. tuberculosis H37Rv", "assay_type": "cell-based", "conditions": "for MIC: Mycobacterium tuberculosis; for % Inhibition: primary screen at 12.5 or 6.25 ug/ml"}, "[2]": {"tested_on": "Mycobacterium tuberculosis H37Rv (ATCC 27294)", "assay": "Microplate Alamar Blue Assay (MABA), primary screen and MIC against M. tuberculosis H37Rv", "assay_type": "cell-based", "set-up": "MIC H37Rv: unit not given beside the values", "conditions": "for MIC: Mycobacterium tuberculosis, M. tuberculosis H37Rv; for MIC / % Inhibition: ASSAY ALAMAR; for % Inhibition: primary screen at 12.5 or 6.25 ug/ml"}, "[3]": {"tested_on": "M. tuberculosis Erdman (ATCC 35801) in mouse bone marrow macrophages", "assay": "Killing of M. tuberculosis Erdman in monolayers of mouse bone marrow macrophages (EC90, EC99)", "assay_type": "cell-based, Mycobacterium tuberculosis"}, "M. tuberculosis Erdman": {"tested_on": "M. tuberculosis Erdman", "assay": "MIC in the MABA against drug-sensitive strain Erdman", "assay_type": "cell-based", "conditions": "Mycobacterium tuberculosis, read-out: MIC ERDMA (ug/ml)"}, "M.tuberculosis (H37Rv)": {"tested_on": "M.tuberculosis (H37Rv)", "conditions": "compared with 4-aminosalicylic acid; cited from earlier work"}, "[4]": {"conditions": "primary screen, BACTEC, M. tuberculosis H37Rv, read-out: MIC"}},
  "data": [
    {"smiles": "CO[C@H]1/C=C/O[C@@]2(C)Oc3c(C)c(O)c4c(O)c(c(/C=N/N5CCN(C)CC5)c(O)c4c3C2=O)NC(=O)/C(C)=C\\C=C\\[C@H](C)[C@H](O)[C@@H](C)[C@@H](O)[C@@H](C)[C@H](OC(C)=O)[C@@H]1C", "note": "[RMP, rifampin, reference compound]", "values": [
      {"measurement": "MIC", "setting": "[1]; reference drug in the COMMENT column of the primary screen, read-out: MIC of RMP vs. M. tuberculosis", "result": 0.25, "unit": "mg/L"}
    ]},
    {"smiles": "O=Cc1ccc(/C=N/c2ccc(C(=O)Oc3ccccc3)c(O)c2)cc1", "note": "[SAMPLE ID 130069]", "values": [
      {"measurement": "MIC", "setting": "[1]; [4]", "result": "< 12.5", "unit": "mg/L"},
      {"measurement": "% Inhibition", "setting": "[1]; BACTEC, M. tuberculosis H37Rv", "result": 99, "unit": "%"}
    ]},
    {"smiles": "O=C(Oc1ccccc1)c1ccc(NC(=S)Nc2ccccc2)cc1O", "note": "[SAMPLE ID 131326]", "values": [
      {"measurement": "MIC", "setting": "[1]; Table 4, assay not given, read-out: MIC", "result": 0.2, "unit": "mg/L"},
      {"measurement": "MIC", "setting": "[1]; actual MIC, ASSAY BACTEC, M. tuberculosis H37Rv, read-out: MIC", "result": 0.2, "unit": "mg/L"},
      {"measurement": "MIC", "setting": "[1]; [4]", "result": "< 12.5", "unit": "mg/L"},
      {"measurement": "% Inhibition", "setting": "[1]; BACTEC, M. tuberculosis H37Rv", "result": 100, "unit": "%"},
      {"measurement": "MIC H37Rv", "setting": "[2]; Table 9 strain panel, drug-sensitive strain H37Rv", "result": 1.56},
      {"measurement": "EC99", "setting": "[3]; 99% reduction in colony forming units at 7 days, bactericidal activity", "result": 0.92, "unit": "µg/mL"},
      {"measurement": "EC90", "setting": "[3]; Mycobacterium tuberculosis, Bone marrow macrophage, 168 h, 90% reduction in colony forming units at 7 days, bacteriostatic activity", "result": 0.203, "unit": "mg/L"},
      {"measurement": "MIC", "setting": "M. tuberculosis Erdman", "result": 0.2, "unit": "µg/mL"}
    ]},
    {"smiles": "O=C(Oc1ccccc1)c1ccc(/N=C/c2ccc([N+](=O)[O-])cc2)cc1O", "note": "[SAMPLE ID 133652]", "values": [
      {"measurement": "MIC", "setting": "[1]; actual MIC, ASSAY BACTEC, M. tuberculosis H37Rv", "result": 0.1, "unit": "mg/L"},
      {"measurement": "MIC", "setting": "[1]; primary screen, BACTEC, M. tuberculosis H37Rv", "result": "< 12.5", "unit": "mg/L"},
      {"measurement": "% Inhibition", "setting": "[1]; BACTEC, M. tuberculosis H37Rv", "result": 97, "unit": "%"}
    ]},
    {"smiles": "CCC(=O)Nc1ccc(C(=O)Oc2ccccc2)c(OC(=O)CC)c1", "note": "[SAMPLE ID 138392]", "values": [
      {"measurement": "MIC", "setting": "[2]", "result": 0.39, "unit": "mg/L"},
      {"measurement": "% Inhibition", "setting": "[2]", "result": 94, "unit": "%"}
    ]},
    {"smiles": "O=C(Oc1ccccc1)c1ccc(/C=N/c2ccccc2[N+](=O)[O-])cc1O", "note": "[SAMPLE ID 139235]", "values": [
      {"measurement": "MIC", "setting": "[2]", "result": 0.025, "unit": "mg/L"},
      {"measurement": "% Inhibition", "setting": "[2]", "result": 97, "unit": "%"}
    ]},
    {"smiles": "Nc1ccc(C(=O)Oc2ccccc2)c(O)c1", "note": "[phenyl 4-aminosalicylate]", "values": [
      {"measurement": "destruction of the virulent strain of M.tuberculosis (H37Rv)", "setting": "M.tuberculosis (H37Rv)", "result": "even better than 4-aminosalicylic acid"}
    ]}
  ]
}
